Measurements from US4420481A, “Use of piperazine compounds as immunopotentiating agents” (Mitsuitoatsu Chemicals Inc., priority 1980, dated 1983).
Structures can show the parent of a compound that is named as a salt.

What was measured:
[1] = system: EL-4 leukemic cells; test: Test 3: In-Vitro Test of Inhibition of Growth of Cancer Cell by Macrophage; assay type: cell-based; conditions: for Take-In Ratio of 3H-thymidine (average value): 8 mg/Kg intraperitoneal to mice, macrophages collected after 4 days, with EL-4 cells, control 80.2
Experimental: The results of the test of the action of the effective ingredient of the present invention on the macrophage will now be described with reference to the following Test 3. More specifically, the separated macrophage and EL-4 leukemic cell were mixed and cultured, and ^3 H-thymidine was added to a culture medium and the quantity of ^3 H-thymidine incorporated into the EL-4 cell was determined to examine the activity of the macrophage. When the macrophage is activated by administration of the effective ingredient of the present invention, inhibition of the growth of EL-4 cell, that is, phagocytosis of the cancer cell by the macrophage, is observed. Accordingly, if the take-in amount of ^3 H-thymidine is measured and this amount is reduced, it is confirmed that the macrophage has been activated. […] The dose was 8 mg per Kg of the body weight. To the control group, a physiological saline solution was similarly administered. After passage of 4 days, exuded abdominal cells were collected and deposited on a plastic Petri dish to collect microphages. Then, 1×10^6 of so obtained macrophages and 1×10^5 of EL-4 leukemic cells of C57 BL/6J mouse were mixed with cultured in an RPM1 1640 culture medium to which 10% of bovine embryo serum was added (at 37° C. in the presence of 5% of CO2) for 24 hours. Then, 0.1μ Ci of ^3 H-thymidine was added and culturing was further conducted for 16 hours. Cells were collected on a filter paper from the culture medium and the amount of ^3 H-thymidine taken in was determined by a liquid scintillation counter. […] For comparison, the test was similarly carried out by using Levamisol hydrochloride. Results

[2] = system: adjuvant arthritis; test: Test 2: Adjuvant Arthritis Test; assay type: in vivo, SD male rats; conditions: rat, 5 mg/Kg subcutaneous, 9 times, left hind leg, * P<0.05, ** P<0.01
[3] = system: delayed hypersensitivity; test: Test 1: Test of Reinforcement of Delayed Hypersensitivity; assay type: in vivo, ICR male mice; conditions: mouse
Description: Various test systems using animals have been proposed for determining the immunopotensiative action. Results of the test of reinforcement of the delayed hypersensitivity, which is a typical test among these tests, will now be described.
This system was used for the test of reinforcement of the delayed hypersensitivity.
One groups of eight ICR male mice, each having a body weight of about 30 g, were used for the test.
Sensitization was effected by coating a 7% solution of picryl chloride in a 4/1 mixture of olive oil and acetone on the shaved abdomen of the mouse.
Simultaneously with sensitization, a solution or suspension of the compound of the present invention in a 0.2% solution of carboxymethyl cellulose in a physiological saline solution was orally administered to the mouse at a dose of 50 mg per Kg of the body weight. To the control group, a 0.2% carboxymethyl cellulose solution in a physiological saline solution was similarly administered.
The delayed hypersensitivity was challenged 7 days after sensitization by gripping the ear of the mouse by a forceps wrapped with a felt impregnated with a 1% solution of picryl chloride in olive oil and coating the ear with the solution. The thickness of the ear was measured before challenging and 24 hours after challenging and the ratio of increase of the thickness (average value of both the ears in eight mice±standard deviation) was obtained as shown in Table 1.
For comparison, the test was similarly carried out by using Levamisol hydrochloride, and the obtained results are shown in Table 1. F.t tests were carried out. The group in which the test result was significant at a level of P<0.05 was marked by *, and the group in which the test result was significant at a level of P<0.01 ws marked by **.

[4] = system: Sarcoma 180; test: Test 5: Test of Carcinostatic Effect to Sarcoma 180 by Subcutaneous Administration; assay type: in vivo, ICR female mice; conditions: 20 mg/Kg subcutaneous
Experimental: To the control group, a physiological saline solution was similarly administered. […] The diameter D (mm) of the tumor was measured, and the average value and the number N of the living mice were determined to obtain results shown in Table 4.

[5] = system: Sarcoma 180; test: Test 4: Test of Antitumor Effect to Sarcoma 180 by Oral Administration; assay type: in vivo, ICR female mice; conditions: for D: average diameter of tumor: 100 mg/Kg oral once a day, 10 days
Experimental: To the control group, a physiological saline solution was similarly administered. The dose of the compound was 100 mg per Kg of the body weight. The diameter D (mm) of the tumor was measured, and the average value and the number N of the living mice were determined to obtain results shown in Table 4.

[6] = 0 weeks, 100 mg/Kg oral, control 6
[7] = 2 weeks, 100 mg/Kg oral, control 6
[8] = 4 weeks, 100 mg/Kg oral, control 6
[9] = 6 weeks, 100 mg/Kg oral, control 6
[10] = 8 weeks, 100 mg/Kg oral, control 5
[11] = 10 weeks, 100 mg/Kg oral, control 1
[12] = 50 mg/Kg oral, 24 hours after challenge, * P<0.05, ** P<0.01, control 29.6 ± 1.9

c1ccc([C@H]2CN3CCSC3=N2)cc1 [Levamisole.hydrochloride, reference compound]
activation of macrophage / phagocytosis of cancer cells (in words) ([1]; 8 mg/Kg intraperitoneal): hardly exhibits such action | inhibition of take-in of 3H-thymidine by EL-4 leukemic cells (in words) ([1]; 8 mg/Kg intraperitoneal): does not exhibit such action | Take-In Ratio of 3H-thymidine (average value) [1]: 49.0% | Swelling Ratio (average value ± standard variation) ([2]; 15 days, control 84.4 ± 9.0): 65.2 ± 5.9% | Swelling Ratio (average value ± standard variation) ([2]; 18 days, control 103.2 ± 9.7): 69.3 ± 7.1% | Swelling Ratio (average value ± standard variation) ([2]; 21 days, control 107.5 ± 13.3): 80.7 ± 9.6% | Ratio of Increase of Ear Thickness (average value ± Standard Variation) ([3]; in vivo): 35.6 ± 2.4% | N: number of living mice ([4]; 0 weeks, control 6): 6 | carcinostatic activity (in words) [4]: no substantial carcinostatic activity | N: number of living mice ([4]; 2 weeks, control 6): 6 | D: average diameter of tumor ([4]; 2 weeks, control 10.8): 7.7 mm | N: number of living mice ([4]; 4 weeks, control 6): 6 | D: average diameter of tumor ([4]; 4 weeks, control 16.6): 14.8 mm | N: number of living mice ([4]; 6 weeks, control 6): 6 | D: average diameter of tumor ([4]; 6 weeks, control 20.3): 14.4 mm | N: number of living mice ([4]; 8 weeks, control 4): 3 | D: average diameter of tumor ([4]; 8 weeks, control 31.2): 30.2 mm | N: number of living mice ([4]; 10 weeks, control 1): 2 | D: average diameter of tumor ([4]; 10 weeks, control 40.5): 31.6 mm | N: number of living mice [5, 6]: 6 | carcinostatic action (in words) ([5]; 100 mg/Kg oral, repeated): no substantial carcinostatic action was observed | D: average diameter of tumor ([5]; 2 weeks, control 10.6): 10.2 mm | N: number of living mice [5, 7]: 6 | D: average diameter of tumor ([5]; 4 weeks, control 15.2): 16.2 mm | N: number of living mice [5, 8]: 6 | D: average diameter of tumor ([5]; 6 weeks, control 22.4): 20.7 mm | N: number of living mice [5, 9]: 6 | D: average diameter of tumor ([5]; 8 weeks, control 31.5): 29.6 mm | N: number of living mice [5, 10]: 6 | D: average diameter of tumor ([5]; 10 weeks, control 37.6): 28.1 mm | N: number of living mice [5, 11]: 6

CN1CCN(C(=O)N2CCCC2)CC1 [drawing 7]
Ratio of Increase of Ear Thickness (average value ± Standard Variation) [3, 12]: 36.7 ± 2.5%

CN1CCN(C(=O)N2CCCCC2)CC1 [drawing 8]
Ratio of Increase of Ear Thickness (average value ± Standard Variation) [3, 12]: 43.5 ± 2.8%

O=C(N1CCCCC1)N1CCN(c2ccccc2)CC1 [drawing 9]
Ratio of Increase of Ear Thickness (average value ± Standard Variation) [3, 12]: 45.0 ± 4.6%

CN1CCN(C(=O)N2CCCC2)CC1 [drawing 10]
Swelling Ratio (average value ± standard variation) ([2]; 15 days, control 84.4 ± 9.0): 54.6 ± 11.3% | Swelling Ratio (average value ± standard variation) ([2]; 18 days, control 103.2 ± 9.7): 61.7 ± 13.0% | Swelling Ratio (average value ± standard variation) ([2]; 21 days, control 107.5 ± 13.3): 73.3 ± 14.6%

CN1CCN(C(=O)N2CCCCC2)CC1 [drawing 11]
Swelling Ratio (average value ± standard variation) ([2]; 15 days, control 84.4 ± 9.0): 49.4 ± 10.3% | Swelling Ratio (average value ± standard variation) ([2]; 18 days, control 103.2 ± 9.7): 62.0 ± 12.5% | Swelling Ratio (average value ± standard variation) ([2]; 21 days, control 107.5 ± 13.3): 68.1 ± 14.0%

O=C(N1CCCCC1)N1CCN(c2ccccc2)CC1 [drawing 12]
Swelling Ratio (average value ± standard variation) ([2]; 15 days, control 84.4 ± 9.0): 39.5 ± 11.7% | Swelling Ratio (average value ± standard variation) ([2]; 18 days, control 103.2 ± 9.7): 56.1 ± 10.8% | Swelling Ratio (average value ± standard variation) ([2]; 21 days, control 107.5 ± 13.3): 74.4 ± 13.9%

CN1CCN(C(=O)N2CCCC2)CC1 [drawing 13]
Take-In Ratio of 3H-thymidine (average value) [1]: 25.7%

CN1CCN(C(=O)N2CCCCC2)CC1 [drawing 14]
Take-In Ratio of 3H-thymidine (average value) [1]: 22.6%

O=C(N1CCCCC1)N1CCN(c2ccccc2)CC1 [drawing 15]
Take-In Ratio of 3H-thymidine (average value) [1]: 21.9%

CN1CCN(C(=O)N2CCCC2)CC1 [drawing 16]
N: number of living mice [5, 6]: 6 | D: average diameter of tumor ([5]; 2 weeks, control 10.6): 7.7 mm | N: number of living mice [5, 7]: 6 | D: average diameter of tumor ([5]; 4 weeks, control 15.2): 6.3 mm | N: number of living mice [5, 8]: 6 | D: average diameter of tumor ([5]; 6 weeks, control 22.4): 5.5 mm | N: number of living mice [5, 9]: 6 | D: average diameter of tumor ([5]; 8 weeks, control 31.5): 4.7 mm | N: number of living mice [5, 10]: 6 | D: average diameter of tumor ([5]; 10 weeks, control 37.6): 0 mm | N: number of living mice [5, 11]: 6

CN1CCN(C(=O)N2CCCCC2)CC1 [drawing 17]
N: number of living mice [5, 6]: 6 | D: average diameter of tumor ([5]; 2 weeks, control 10.6): 6.0 mm | N: number of living mice [5, 7]: 6 | D: average diameter of tumor ([5]; 4 weeks, control 15.2): 4.7 mm | N: number of living mice [5, 8]: 6 | D: average diameter of tumor ([5]; 6 weeks, control 22.4): 4.8 mm | N: number of living mice [5, 9]: 6 | D: average diameter of tumor ([5]; 8 weeks, control 31.5): 3.3 mm | N: number of living mice [5, 10]: 6 | D: average diameter of tumor ([5]; 10 weeks, control 37.6): 0 mm | N: number of living mice [5, 11]: 6

O=C(N1CCCCC1)N1CCN(c2ccccc2)CC1 [drawing 18]
N: number of living mice [5, 6]: 6 | D: average diameter of tumor ([5]; 2 weeks, control 10.6): 6.2 mm | N: number of living mice [5, 7]: 6 | D: average diameter of tumor ([5]; 4 weeks, control 15.2): 3.8 mm | N: number of living mice [5, 8]: 6 | D: average diameter of tumor ([5]; 6 weeks, control 22.4): 4.4 mm | N: number of living mice [5, 9]: 6 | D: average diameter of tumor ([5]; 8 weeks, control 31.5): 5.3 mm | N: number of living mice [5, 10]: 6 | D: average diameter of tumor ([5]; 10 weeks, control 37.6): 0 mm | N: number of living mice [5, 11]: 6

CN1CCN(C(=O)N2CCCC2)CC1 [drawing 19]
N: number of living mice ([4]; 0 weeks, control 6): 6 | N: number of living mice ([4]; 2 weeks, control 6): 6 | D: average diameter of tumor ([4]; 2 weeks, control 10.8): 2.2 mm | N: number of living mice ([4]; 4 weeks, control 6): 6 | D: average diameter of tumor ([4]; 4 weeks, control 16.6): 3.6 mm | N: number of living mice ([4]; 6 weeks, control 6): 6 | D: average diameter of tumor ([4]; 6 weeks, control 20.3): 6.1 mm | N: number of living mice ([4]; 8 weeks, control 4): 6 | D: average diameter of tumor ([4]; 8 weeks, control 31.2): 1.2 mm | N: number of living mice ([4]; 10 weeks, control 1): 5 | D: average diameter of tumor ([4]; 10 weeks, control 40.5): 0 mm

CN1CCN(C(=O)N2CCCCC2)CC1 [drawing 20]
N: number of living mice ([4]; 0 weeks, control 6): 6 | N: number of living mice ([4]; 2 weeks, control 6): 6 | D: average diameter of tumor ([4]; 2 weeks, control 10.8): 1.6 mm | N: number of living mice ([4]; 4 weeks, control 6): 6 | D: average diameter of tumor ([4]; 4 weeks, control 16.6): 3.7 mm | N: number of living mice ([4]; 6 weeks, control 6): 6 | D: average diameter of tumor ([4]; 6 weeks, control 20.3): 5.7 mm | N: number of living mice ([4]; 8 weeks, control 4): 6 | D: average diameter of tumor ([4]; 8 weeks, control 31.2): 0.8 mm | N: number of living mice ([4]; 10 weeks, control 1): 6 | D: average diameter of tumor ([4]; 10 weeks, control 40.5): 0 mm

O=C(N1CCCCC1)N1CCN(c2ccccc2)CC1 [drawing 21]
N: number of living mice ([4]; 0 weeks, control 6): 6 | N: number of living mice ([4]; 2 weeks, control 6): 6 | D: average diameter of tumor ([4]; 2 weeks, control 10.8): 2.4 mm | N: number of living mice ([4]; 4 weeks, control 6): 6 | D: average diameter of tumor ([4]; 4 weeks, control 16.6): 3.9 mm | N: number of living mice ([4]; 6 weeks, control 6): 6 | D: average diameter of tumor ([4]; 6 weeks, control 20.3): 5.2 mm | N: number of living mice ([4]; 8 weeks, control 4): 6 | D: average diameter of tumor ([4]; 8 weeks, control 31.2): 0.2 mm | N: number of living mice ([4]; 10 weeks, control 1): 6 | D: average diameter of tumor ([4]; 10 weeks, control 40.5): 0 mm
